Where “and” joins values, the source holds several entries; their conditions need not be identical. Identical values can stand only once.
What was measured:
[1] = tested on: normal rats on normal sodium diet; assay: Hyperuricemia in normal rats on normal sodium diet: serum uric acid, systolic blood pressure, body weight; assay type: in vivo, Sprague-Dawley rats
Experimental: (§1) Experimental Design: All animal procedures were approved by the Animal Care Committee. Male 300-350 g Sprague-Dawley rats were used in all experiments.
(§2) Hyperuricemia in normal rats on normal sodium diet: To produce hyperuricemia, rats were administered oxonic acid (OA) (Sigma, St Louis Mo., USA) 750 mg/kg body weight by gastric gavage. To prevent the rise of serum uric acid induced by OA, allopurinol (AP) (Sigma, St Louis Mo., USA) was administered in drinking water (150 mg/L). We studied the following groups: Control (n=8); OA (n=7) and OA plus allopurinol (n=9). Systolic blood pressure and serum uric acid were measured at baseline and after 30-33 days of follow-up. Micropuncture studies were performed at 5 weeks.
(§3) Evaluation: In all studies, systolic blood pressure (SBP) was measured by tail cuff sphyngomanometer using an automated system (Narco Biosystems, Houston Tex., USA). All animals were preconditioned for blood pressure measurements 1 week before each experiment. Proteinuria was determined by turbidimetry by the method of trichloroacetic acid (Henry R J, Sobel Ch, Segalove M: Turbidimetric determination of proteins with sulfosalicylic and trichloroacetic acids. Proc Soc Exp Biol Med 92:748-751, 1956). Serum uric acid was measured by colorimetric phosphotungstic acid method using a commercial kit (Wiener Lab, Argentina).
(§4) Statistical analysis. Values are expressed as mean±standard error (SE). Differences between groups were evaluated by ANOVA with appropriate correction for multiple comparisons (Bonferroni). The relation between variables was assessed by correlation analysis.

[2] = tested on: Male Sprague-Dawley rats; assay: Hyperuricemia and serum nitrites/nitrates (NOx) in rats, Example 2; assay type: in vivo; conditions: for serum uric acid: OA 750 mg/kg/day gavage, AP 150 mg/L drinking water; for Serum nitrites and nitrates (NOx): chemiluminescence
Experimental: Male Sprague-Dawley rats were housed in standard conditions and fed normal diets. We induced hyperuricemia with an uricase inhibitor, oxonic acid (OA; 750 mg/kg/day), by gavage, with control rats receiving vehicle. Allopurinol (AP) was used to block hyperuricemia by placing AP in the drinking water (150 mg/L). Rats were divided into four groups: (1) Control, (2) AP only, (3) OA only, and (4) OA+AP. Systolic blood pressure was measured using a tail-cuff sphygmomanometer. The amount of drinking water consumed and changes in body weight were noted. Rats were sacrificed at one and seven days. Serum was analyzed for uric acid concentration and nitrites/nitrates (NOx) by chemiluminescence method. (Prabhakar SS: Inhibition of mesangial iNOS by reduced extracellular pH is associated with uncoupling of NADPH oxidation. Kidney Int 61:2015-2024, 2002). Statistical analysis between subgroups was performed using ANOVA.

[3] = tested on: remnant kidney rats (5/6 nephrectomy); assay: Hyperuricemia in remnant kidney rats: serum uric acid, systolic blood pressure, proteinuria, body weight; assay type: in vivo, Sprague-Dawley rats
Experimental: as §1
(§5) Hyperuricemia in remnant kidney rats on normal sodium diet: Under light anesthesia with ether, 5/6 nephrectomy was performed by removal of the right kidney and selective ligation of 2-3 branches of left renal artery. To induce hyperuricemia rats were given OA (750 mg/kg) by gastric gavage starting the day after the renal ablation. To prevent hyperuricemia AP was administered in the drinking water (150 mg/L). The following groups were studied: 5/6 Nx (n=10); 5/6 Nx+OA (n=12) and 5/6 Nx+OA+AP (n=13). Systolic blood pressure, proteinuria and serum uric acid were measured at baseline and after 25-28 days of follow-up. Micropuncture studies were performed at 4 weeks.
as §3, §4

[4] = tested on: remnant kidney rats (5/6 nephrectomy); assay: Micropuncture (glomerular hemodynamics) in remnant kidney rats; assay type: in vivo, Sprague-Dawley rats; design: SNGFR lower than RK control group / glomerular plasma flow lower than RK control group / Kf lower than RK control group / afferent resistance higher compared to RK control / efferent resistance higher compared to RK control: concentration or dose not given beside the values
Experimental: as §1, §5
(§6) Micropuncture: Animals were anesthetized with pentobarbital sodium (30 mg/kg ip) and placed on a thermoregulated table to maintain body temperature at 37° C. Trachea, jugular veins, femoral arteries, and the left ureter were catheterized with polyethylene tubing (PE-240, PE-50, and PE-10). The left kidney was exposed, placed in a Lucite holder, sealed with agar, and covered with Ringer's solution. Mean arterial pressure (MAP) was monitored with a pressure transducer (Model p23 db; Gould, San Juan, PR) and recorded on a polygraph (Grass Instruments, Quincy, Mass., USA). Blood samples were taken periodically and replaced with blood from a donor rat. Rats were maintained under euvolemic conditions by infusion of 10 ml/kg of body weight of isotonic rat plasma during surgery, followed by an infusion of 25% polyfructosan, at 2.2 ml/h (Inutest, Laevosan-Gesellschaft, Linz, Austria). After 60 min, five to six 3-min collection samples of proximal tubular fluid were obtained to determine flow rate and polyfructosan concentration. Intratubular pressure under free-flow and stop-flow conditions and peritubular capillary pressure were measured in other proximal tubules with a servo-null device (Servo Nulling Pressure System; Instrumentation for Physiology and Medicine, San Diego, Calif., USA). Polyfructosan was measured in plasma samples. Glomerular colloid osmotic pressure was estimated in protein from blood of the femoral artery (Ca) and surface efferent arterioles (Ce). Polyfructosan concentrations were determined by the technique of Davidson and Sackner (Davidson W D, Sackner Mass.: Simplification of the Antrhone Method for the Determination of Inulin in Clearance Studies. J. Lab Clin. Med. 62:351-356, 1963). The volume of fluid collected from individual proximal tubules was estimated from the length of the fluid column in a constant bore capillary tube of known internal diameter. Concentration of tubular polyfructosan was measured by the method of Vurek and Pegram (Vurek G G, Pegram S E: Fluorometric method for the determination of nanogram quantities of inulin. Ann. Biochem 16:409-419, 1966). Protein concentration in afferent and efferent samples was determined according to the method of Viets et al. (Viets J W, Deen W M, Troy J L, Brenner B M: Determination of serum protein concentration in nanoliter blood samples using fluorescamine or 9-phthalaldehyde. Anal. Biochem 88:513-521, 1978). MAP, GFR, single-nephron GFR (SNGFR), glomerular capillary hydrostatic pressure (Pgc), single-nephron plasma flow (QA), afferent (RA) and efferent (RE) resistances, and Kf, were calculated according to equations given elsewhere (Baylis C, Deen W M, Myers B D, Brenner B M: Effects of some vasodilator drugs on transcapillary fluid exchange in renal cortex. Am. J. Physiol 230:1148-1158, 1976).
as §4

[5] = tested on: normal rats on normal sodium diet; assay: Micropuncture (glomerular hemodynamics) in normal rats on normal sodium diet; assay type: in vivo, Sprague-Dawley rats
Experimental: as §1, §2, §6, §4

[6] = micropuncture at 4 weeks, mean±SE
[7] = micropuncture at 5 weeks, mean±SE

## Oc1ncnc2[nH]ncc12 [AP, allopurinol]
[1]; concurrent with oxonic acid
  effect on the hypertension induced by oxonic acid: prevented
  effect on the increase of serum uric acid induced by oxonic acid: prevented
[2]; rats treated with AP alone
  change in NOx concentration: did not show a significant change
  change in serum UA concentration: did not show a significant change
[2]; rats, 1 day
  serum uric acid: 1.52 ± 0.3 mg/dL
  Serum nitrites and nitrates (NOx): 17.4 ± 0.8 µmol/L
[2]; rats, 7 days
  serum uric acid: 0.3 ± 0.2 mg/dL
  Serum nitrites and nitrates (NOx): 25.0 ± 0.8 µmol/L
[3]; concomitant with oxonic acid
  effect on SBP: only a marginal effect
  effect on hyperuricemia: prevented
  effect on proteinuria: prevented
[4]; AP with oxonic acid, in the presence of systemic hypertension
  PGC, in words: normal and significantly lower than RK hyperuricemic rats
[4]; [6]
  SNGFR (single-nephron GFR): 53 nL/min
[5]; concomitant with oxonic acid
  effect on glomerular hemodynamic alterations of hyperuricemia: prevented these alterations

## O=C(O)c1nc(=O)[nH]c(=O)[nH]1 [OA, oxonic acid]
[1]; normal salt diet, OA 750 mg/kg gavage, AP 150 mg/L drinking water, 30-33 days, mean±SE
  SUA (serum uric acid): 5.4 ± 0.2 mg/dL
[1]; normal salt diet, tail cuff, 30-33 days, mean±SE
  SBP (systolic blood pressure): 134 ± 3 mmHg
[1]; vs control
  increment of serum uric acid: two-fold
[2]; hyperuricemic rats at both 1 day and 7 days
  reduction of serum NOx vs control: 40-50%
[2]; rats, 1 day
  serum uric acid: 1.7 ± 0.7 mg/dL
  Serum nitrites and nitrates (NOx): 15.6 ± 0.4 µmol/L
[2]; rats, 7 days
  serum uric acid: 1.8 ± 0.4 mg/dL
  Serum nitrites and nitrates (NOx): 14.6 ± 1.1 µmol/L
[2]; rats, 7 days, tail cuff
  systolic blood pressure: 178±18 mm Hg
[3]; 25-28 days, mean±SE
  Uprot (proteinuria): 246 ± 29 mg/day
[3]; OA 750 mg/kg gavage, AP 150 mg/L drinking water, 25-28 days, mean±SE
  SUA (serum uric acid): 4.5 ± 0.4 mg/dL
[3]; tail cuff, 25-28 days, mean±SE
  SBP (systolic blood pressure): 191 ± 10 mmHg
[3]; vs RK control
  additional rise of proteinuria: two fold
  further increase of SBP: 30 mmHg
  increase of serum uric acid: two fold
[4]
  Kf lower than RK control group: 50%
  SNGFR lower than RK control group: 40%
  afferent resistance higher compared to RK control: 120%
  efferent resistance higher compared to RK control: 80%
  glomerular plasma flow lower than RK control group: 40%
[4]; [6]
  GFR: 0.4 ± 0.1 mL/min
  KF (ultrafiltration coefficient): 0.02 nl/s/mmHg and 0.024 ± 0.003 nl/s/mmHg
  MAP (mean arterial pressure): 184 ± 6 mmHg
  PGC (glomerular capillary pressure): 62 mmHg and 62 ± 1 mmHg
  QA (glomerular plasma flow): 147 nL/min and 146.5 ± 20.4 nL/min
  RA (afferent resistance): 4.6 dyn/s/cm^−5 and 4.55 ± 0.66 dyn/s/cm^−5
  RE (efferent resistance): 1.8 dyn/s/cm^−5 and 1.83 ± 022 dyn/s/cm^−5
  SNGFR (single-nephron GFR): 40.6 nL/min and 40.7 ± 6.0 nL/min
[5]; hyperuricemic vs control
  afferent resistance higher: 45%
  decrease of SNGFR: 35%
  efferent resistance higher: 64%
[5]; [7]
  GFR: 0.71 ± 0.1 mL/min
  KF (ultrafiltration coefficient): 0.027 ± 0.002 nl/s/mmHg
  MAP (mean arterial pressure): 131 ± 4 mmHg
  PGC (glomerular capillary hydrostatic pressure): 56 ± 2 mmHg
  QA (single-nephron plasma flow): 66.1 ± 7.2 nL/min
  RA (afferent resistance): 4.82 ± 0.67 dyn/s/cm^−5
  RE (efferent resistance): 2.83 ± 0.19 dyn/s/cm^−5
  SNGFR (single-nephron GFR): 17.8 ± 2 nL/min

Reference: patent US20080317728A1, “Lowering Uric Acid to Prevent or Accelerate Recovery of Acute Renal Failure” (UNIVERSITY OF FLORIDA RESEARCH FOUNDATION, INC., priority 2004, published 2008)
